Numbers after ± are expanded uncertainties.
Conditions: 283.15 K, Liquid, Vibrating tube method

CCCCCCCCCC [decane]
Conditions | mass density [kg/m3]
14704 kPa | 747.6 ± 2
14722 kPa | 747.7 ± 2
14741 kPa | 747.7 ± 2
14759 kPa | 747.7 ± 2
14777 kPa | 747.6 ± 2
14795 kPa | 747.6 ± 2
14826 kPa | 747.7 ± 2
14844 kPa | 747.7 ± 2
14862 kPa | 747.7 ± 2
14881 kPa | 747.8 ± 2
14903 kPa | 747.7 ± 2
14925 kPa | 747.8 ± 2
14941 kPa | 747.8 ± 2
14963 kPa | 747.8 ± 2
14979 kPa | 747.8 ± 2
14998 kPa | 747.9 ± 2
15017 kPa | 748 ± 2
15036 kPa | 747.9 ± 2
15055 kPa | 747.9 ± 2
15077 kPa | 747.9 ± 2
15100 kPa | 747.8 ± 2
15119 kPa | 747.9 ± 2
15139 kPa | 747.9 ± 2
15239 kPa | 748 ± 2
15312 kPa | 748 ± 2
15351 kPa | 748.1 ± 2
15368 kPa | 748.1 ± 2
15391 kPa | 748.2 ± 2
15415 kPa | 748 ± 2
15442 kPa | 748.1 ± 2
15466 kPa | 748.3 ± 2
15486 kPa | 748.1 ± 2
15507 kPa | 748.2 ± 2
15524 kPa | 748.3 ± 2
15545 kPa | 748.3 ± 2
15569 kPa | 748.3 ± 2
15590 kPa | 748.2 ± 2
15617 kPa | 748.3 ± 2
15645 kPa | 748.4 ± 2
15669 kPa | 748.2 ± 2
15693 kPa | 748.3 ± 2
15718 kPa | 748.3 ± 2
15743 kPa | 748.2 ± 2
15771 kPa | 748.4 ± 2
15799 kPa | 748.3 ± 2
15821 kPa | 748.3 ± 2
15850 kPa | 748.3 ± 2
15874 kPa | 748.4 ± 2
15899 kPa | 748.4 ± 2
15920 kPa | 748.6 ± 2
15949 kPa | 748.5 ± 2
15981 kPa | 748.6 ± 2
16007 kPa | 748.4 ± 2
16028 kPa | 748.6 ± 2
16083 kPa | 748.6 ± 2
16109 kPa | 748.6 ± 2
16135 kPa | 748.5 ± 2
16168 kPa | 748.6 ± 2
16191 kPa | 748.6 ± 2
16221 kPa | 748.6 ± 2
16257 kPa | 748.7 ± 2
16288 kPa | 748.7 ± 2
16310 kPa | 748.7 ± 2
16344 kPa | 748.8 ± 2
16378 kPa | 748.7 ± 2
16405 kPa | 748.8 ± 2
16433 kPa | 748.8 ± 2
16467 kPa | 748.7 ± 2
16494 kPa | 748.9 ± 2
16528 kPa | 748.8 ± 2
16560 kPa | 748.9 ± 2
16587 kPa | 749 ± 2
16619 kPa | 748.8 ± 2
16643 kPa | 749 ± 2
16667 kPa | 749 ± 2
16703 kPa | 748.8 ± 2
16739 kPa | 749 ± 2
16759 kPa | 748.8 ± 2
16796 kPa | 749 ± 2
16824 kPa | 749 ± 2
16852 kPa | 749.1 ± 2
16880 kPa | 749 ± 2
16905 kPa | 748.9 ± 2
16938 kPa | 749.2 ± 2
16967 kPa | 749.2 ± 2
16993 kPa | 749.1 ± 2
17030 kPa | 749.2 ± 2
17063 kPa | 749.1 ± 2
17088 kPa | 749.1 ± 2
17127 kPa | 749.2 ± 2
17153 kPa | 749.2 ± 2
17192 kPa | 749.2 ± 2
17213 kPa | 749.3 ± 2
17240 kPa | 749.3 ± 2
17267 kPa | 749.4 ± 2
17293 kPa | 749.4 ± 2
17316 kPa | 749.4 ± 2
17343 kPa | 749.4 ± 2
17366 kPa | 749.5 ± 2
17390 kPa | 749.4 ± 2
17422 kPa | 749.4 ± 2
17451 kPa | 749.3 ± 2
17470 kPa | 749.5 ± 2
17498 kPa | 749.4 ± 2
17521 kPa | 749.4 ± 2
17549 kPa | 749.4 ± 2
17626 kPa | 749.5 ± 2
17652 kPa | 749.5 ± 2
17711 kPa | 749.6 ± 2
17734 kPa | 749.6 ± 2
17770 kPa | 749.5 ± 2
17792 kPa | 749.7 ± 2
17815 kPa | 749.7 ± 2
17841 kPa | 749.8 ± 2
17864 kPa | 749.7 ± 2
17898 kPa | 749.9 ± 2
17925 kPa | 749.6 ± 2
17948 kPa | 749.7 ± 2
17982 kPa | 749.9 ± 2
18017 kPa | 749.8 ± 2
18044 kPa | 749.8 ± 2
18071 kPa | 749.9 ± 2
18099 kPa | 749.9 ± 2
18130 kPa | 749.9 ± 2
18154 kPa | 749.9 ± 2
18178 kPa | 749.9 ± 2
18210 kPa | 750 ± 2
18246 kPa | 750 ± 2
18305 kPa | 750 ± 2
18383 kPa | 750 ± 2
18574 kPa | 750.2 ± 2
18652 kPa | 750.2 ± 2
18691 kPa | 750.2 ± 2
18719 kPa | 750.1 ± 2
18746 kPa | 750.2 ± 2
18770 kPa | 750.3 ± 2
18793 kPa | 750.3 ± 2

Source: the NIST ThermoML archive (doi:10.1021/je800110r)
